Results on two compounds are retold here after patent US8653271B2 (priority 2006, dated 2014).

“And” between values parts separate entries of the source, which are not always exact repeats. Equal values may be shown once.

Series [1] can be described thus: Predicting plasma concentrations from in vitro permeation studies. The conditions noted are these: for plasma level predicted with 5.6-fold guinea pig/human skin factor: 6-β-naltrexol equivalents; for Predicted CSS of 6-β-naltrexol: Predicted from in vitro human skin diffusion data. An excerpt:
To predict the plasma concentration of 6-β-naltrexol after application of the gel formulation containing either the codrug or the control formulation, the following equation was used: […]
where CSS is the predicted steady state plasma concentration (ng/ml); JSS is the steady-state flux from in vitro permeation in Table 4 from previous studies; A is the area of the skin in contact with the formulation (14.5 cm^2); Cl is the total body clearance. […] Guinea pig skin is often more permeable than human skin, especially when the stratum corneum is the major rate-limiting step in the absorption process.

The nature of series [2]: physchem. The series is classed as physicochemical. The conditions noted are these: for Light mineral oil solubility: 32° C., 48 h equilibration (Table 3); for Hanks' buffer solubility: pH 7.4, 32° C., 30 min sonication. The method, then:
The solubilities of CB-NTXOL-BUPOH, hydroxybupropion, and 6-β-naltrexol were determined by adding excess quantity of drug to mineral oil or pre-warmed HEPES-buffered Hanks' salt solution pH 7.4 at 32° C. (skin surface temperature), with equilibration while shaking in a water bath at 60 rpm. Weighing 4 mg of each of the drugs and placing them in 1 ml of each of the respective solvents was enough to ensure that there was excess drug in solution. Samples were drawn into a pre-warmed glass syringe, filtered through a syringe filter (Mineral oil: Millex FG-13, Millipore, Billerica, Mass., USA, and buffer: nylon filter, Gelman, East Hills, N.Y., USA), and measured with respect to volume and diluted with an appropriate volume of acetonitrile or buffer. The drug from the buffer samples was immediately extracted by solid phase extraction as described above. Drugs in mineral oil were diluted with a hundred-fold volume of acetonitrile and extraction recoveries were >95% for all the drugs. The sampling procedure was done in triplicate, discarding the first 40% of the initial filtrate. […]. For buffer solubilities, samples were taken after 30 min of sonication (to minimize the hydrolysis of the codrug). No significant difference was found between 30 min sonication solubility measurements and equilibrium solubility measurements taken after 48 h for 6-β-naltrexol.

Series [3] is described as follows: Differential scanning calorimetry. The series is classed as physicochemical. The conditions noted are these: for Mean activity of solid @ T = 25° C., a2: calculated from melting point and heat of fusion; for Heat of fusion, ΔHf: ±s.d., n = 3.
The conditions of series [4]: human skin, values obtained from Kiptoo et al., cited from earlier work; for In vitro flux: codrug as NTXOL equivalent flux.
A short description of series [5]: Permeation studies in guinea pigs in vivo (topical gel, plasma pharmacokinetics). Set-up: species or system hairless guinea pigs. The conditions noted are these: for Enhancement factor (delivery of 6-β-naltrexol in vivo): codrug gel versus 6-β-naltrexol base gel, guinea pigs; for Tlag of 6-β-naltrexol: lag time to steady-state; for Tlag of 6-β-naltrexol / AUC0-48 of 6-β-naltrexol / Cmax of 6-β-naltrexol / Tmax of 6-β-naltrexol / Observed CSS of 6-β-naltrexol: topical gel; for Tlag of 6-β-naltrexol / Cmax of 6-β-naltrexol / Tmax of 6-β-naltrexol / Observed CSS of 6-β-naltrexol: hairless guinea pigs; for AUC0-48 of 6-β-naltrexol / Cmax of 6-β-naltrexol / Tmax of 6-β-naltrexol: plasma; for AUC0-48 of 6-β-naltrexol: 14.5 cm^2, hairless guinea pigs; for Observed CSS of 6-β-naltrexol: steady-state plasma concentration, 48 h; for intact codrug in guinea pig plasma after topical application: in vivo plasma samples. The protocol:
A hydroxyethyl cellulose-based gel was prepared for topical application. First, either CB-NTXOL-BUPOH or 6-β-naltrexol (˜25 mg each) was dissolved in 1 ml of PG:buffer, pH 7.4 (2:3, v/v) solution using a magnetic stirrer. Hydroxyethyl cellulose (2%, w/w) was dispersed into these mixtures, sonicated, vortexed, and allowed to form a gel at room temperature. The drug in each formulation was saturated, forming a suspension.
Male and female Hairless IAF and Hartley guinea pigs (Charles River) weighing 345-482 g were used for topical studies (n=5 to 6 per treatment group). Prior to surgery, the animals were treated with glycopyrrolate and buprenorphine (to induce analgesia), and then ketamine (100 mg/kg, i.p.) and xylazine (8 mg/kg, i.m.) were used for anesthetic purposes. Catheters were surgically implanted into the jugular vein. A “blank” baseline plasma sample was drawn from each animal immediately before drug treatment. 500 μL of the gel containing the drug was applied onto the dorsal region of the guinea pig with a syringe and subsequently spread to cover an area of 7.25 cm^2. A rubber ring fitted with a drug-impermeable backing laminate (MEDIFLEX® 1502) was used to enclose the area of gel application. ARcare® acrylic adhesive was used to ensure that the ring maintained contact with the skin. Additionally, a bio-occlusive tape was placed over the patches to further secure the formulation on the guinea pigs. Drug formulations were applied on both sides of each guinea pig to give a total application area of 14.5 cm^2. Plasma samples were obtained at predetermined time intervals, which included 48 h while the formulations were on the animal, and for another 48 h after patches and formulations were removed. Blood samples were immediately centrifuged at 10,000×g for 3 min, and the plasma was separated. Plasma samples were stored at −70° C. until analysis by liquid chromatographic mass spectrometry, LC-MS.
Topical administration data were analyzed by non-compartmental analysis to determine mean steady-state plasma concentration (CSS), lag time to steady-state (tlag), and area under the curve from 0 to 48 h, AUC0-48.

The nature of series [6]: Plasma hydrolysis of the carbonate codrug. The series is classed as in vitro ADME, guinea pig. The conditions noted are these: for Guinea pig plasma half-life: guinea pig plasma in vitro at 37° C. The protocol:
Guinea pig plasma, which was stored at −20° C., was thawed to room temperature. Known and sub-saturated amounts of the codrug (50 nmol) were added to approximately 2.0 ml of the guinea pig plasma and vortexed. Two-hundred μl aliquots of the spiked plasma were distributed into sealed vials, and incubated at 37° C. Samples were withdrawn at predetermined time intervals; 0, 0.5, 1, 2, 4, 6, 9, 24, 30, and 48 h. 500 μl of ACN was added to each sample to precipitate plasma protein. Each sample was vortexed and centrifuged at 10,000×g for 15 min. The supernatant was separated and evaporated under nitrogen at room temperature, and the residue was reconstituted with ACN for high-pressure liquid chromatography (HPLC) analysis. A standard curve was prepared from drug-spiked plasma samples processed by the same method. The amounts of the codrug remaining or parent drugs released were plotted against time. These hydrolytic profiles were fit to previously developed mathematical models using nonlinear least-squares regression analysis ([…]®, Micromath Inc., Salt Lake City, Utah) as described by the equations below: […]

`Oc1ccc2c3c1O[C@H]1[C@H](O)CC[C@@]4(O)[C@@H](C2)N(CC2CC2)CC[C@]314` [Compound 2, 6-β-naltrexol]: in series [1], the “plasma level predicted with 5.6-fold guinea pig/human skin factor” value was 1.1 ng/mL and the “Predicted CSS of 6-β-naltrexol” value was 0.2 ± 0.1 ng/mL. Further, in series [1] (listed as NTXOL), the “Predicted CSS of 6-β-naltrexol” value is 0.2 ± 0.1 ng/mL. Further, in series [2], the “Light mineral oil solubility” value came out at 0.03 mM and the “Hanks' buffer solubility” value amounted to 0.30 mM. For the same compound, in series [3], the “Mean activity of solid @ T = 25° C., a2” value is recorded as 0.12 and the “Heat of fusion, ΔHf” value is 15.05 ± 0.20 kJ/mol. In series [4], the In vitro flux is recorded as 0.36 ± 0.15 nmol cm^−2 h^−1 and the “In vitro lag time” value is listed as 15.72 ± 1.76 h. Further, in series [5], the “Enhancement factor (delivery of 6-β-naltrexol in vivo)” value was found to be 1, the “Tlag of 6-β-naltrexol” value was found to be 5.1 ± 0.7 h, the “AUC0-48 of 6-β-naltrexol” value was found to be 66.4 ± 7.9 ng·h/mL and the “Cmax of 6-β-naltrexol” value was 1.5 ± 0.2 ng/mL. Also, in series [5], the “Tmax of 6-β-naltrexol” value is recorded as 28.1 ± 1.5 h; the “Observed CSS of 6-β-naltrexol” value is 1.25 ± 0.51 ng/mL and 1.2 ng/mL. The “Observed CSS of 6-β-naltrexol” value in series [5] (listed as NTXOL) is 1.2 ± 0.5 ng/mL. Further, the “Guinea pig plasma half-life” value in series [6] is “stable”.

For `Cc1c(-c2cccc(Cl)c2)oc(=O)n1C(C)(C)COC(=O)Oc1ccc2c3c1OC1C(O)CCC4(O)C(C2)N(CC2CC2)CCC314` (stereo not shown) [Compound 26], the “plasma level predicted with 5.6-fold guinea pig/human skin factor” value in series [1] is 3.9 ng/mL. For the same compound, the “Predicted CSS of 6-β-naltrexol” value in series [1] (listed as CB-NTXOL-BUPOH) is 0.7 ± 0.3 ng/mL. Further, in series [2], the “Light mineral oil solubility” value amounted to 2.88 mM and the “Hanks' buffer solubility” value is recorded as 0.53 mM. Further, in series [3], the “Mean activity of solid @ T = 25° C., a2” value is reported as 0.20 and the “Heat of fusion, ΔHf” value was determined as 12.68 ± 0.08 kJ/mol. Moreover, in series [4], the In vitro flux is recorded as 1.34 ± 0.35 nmol cm^−2 h^−1 and the “In vitro lag time” value is reported as 12.10 ± 0.77 h. For the same compound, in series [5], the “Enhancement factor (delivery of 6-β-naltrexol in vivo)” value is recorded as “five-fold”, the “Tlag of 6-β-naltrexol” value was determined as 5.0 ± 1.1 h, the “AUC0-48 of 6-β-naltrexol” value amounted to 282.0 ± 14.5 ng·h/mL and the “Cmax of 6-β-naltrexol” value was 6.6 ± 0.4 ng/mL. Besides, the “Tmax of 6-β-naltrexol” value in series [5] is 10.1 ± 0.9 h. Also, in series [5] (listed as CB-NTXOL-BUPOH), the “intact codrug in guinea pig plasma after topical application” value is on record as “only trace amounts of intact codrug”; the “Observed CSS of 6-β-naltrexol” value was 6.4 ng/mL and 6.4 ± 0.9 ng/mL. In series [5] (listed as codrug), the “intact codrug in guinea pig plasma after topical application” value was “Only trace amounts” and the “Observed CSS of 6-β-naltrexol” value stood at 6.40 ± 0.93 ng/mL. Besides, the “Guinea pig plasma half-life” value in series [6] (listed as CB-NTXOL-BUPOH) stood at 8.7 h. The “Guinea pig plasma half-life” value in series [6] (listed as codrug) is “approximately 8.7 h”. In addition, in series [6] (in vitro), the “hydrolysis in guinea pig plasma compared to pH 7.4 phosphate buffer” value was “almost three-fold faster hydrolysis”.
